Reference: US20210275480A1, “COMPOSITIONS AND METHODS FOR THE REDUCTION OR TREATMENT OF FIBROSIS” (AXCELLA HEALTH INC., priority 2018, published 2021)

How the values were obtained:
[1] = tested on: LX-2 hepatic stellate cells; test: TGFβ1-induced fibrogenic gene expression (Col1a1, Acta2, Timp2) in LX-2 hepatic stellate cells, qPCR; assay type: cell-based, human; conditions: LX-2 cells with TGFβ1
Description: Hepatic stellate cells in a healthy liver are in the space of Disse, between the hepatocytes and liver sinusoidal endothelial cells. In response to liver injury hepatic stellate cells become activated, proliferative and contractile, increase production of aSMA, secretion of type I and III collagens and specific MMP and TIMP proteins. LX-2 cells were selected as a model of activated hepatic stellate cells and used to test whether specific amino acid compositions would reduce fibrogenic gene expression induced with TGFβ1.
LX-2 hepatic stellate cells (Millipore) were seeded on day 0 at 1.67E4 cells per well in collagen I coated 96-well microplates (ThermoFisher) in Dulbecco's Modified Eagle Medium (DMEM, Corning) supplemented with 2% heat inactivated fetal bovine serum (HI-FBS, HyClone) and 0.2% Primocin (InVivoGen) and incubated overnight at 37° C., 5% CO2. […] Combinations containing N-acetylcysteine were dosed with 10 mM. Cells were pretreated for 6 hours at 37° C., 5% CO2. After pretreatment, TGFβ1 (R&D Systems) or vehicle was spiked into each well for a final concentration of 5 ng/mL and cells were incubated under this stimulus for a further 12 hours at 37° C., 5% CO2.
After 12 hour incubation, RNA extraction and quantitative PCR was conducted on lysates to determine collagen-1a1 expression normalized to β-actin housekeeping expression using the ΔΔCt method using TaqMan primer probes (Integrated DNA Technologies: Col1A1, Hs.PT.58.15517795; Actb, Hs.PT.39a.22214847; Acta2, Hs.PT.56a.24853961; Timp2, Hs.PT.58.14780594).

[2] = tested on: Col1a1 gene expression, primary human hepatic stellate cells; test: Col1a1 gene expression in TGFβ1-stimulated primary human hepatic stellate cells; assay type: cell-based; conditions: for Col1a1 Fold Expression Relative to Control, Mean: normalized to Gapdh; for Col1a1 gene expression: primary human hepatic stellate cells, three healthy donors, TGFβ1 3 ng/mL 24 h, summary in words
Experimental: Primary human hepatic stellate cells were obtained from Samsara Sciences. Cells were grown in Complete HSC Medium to ˜80% confluence in T75 or T150 flasks below passage 10 were seeded into sterile, collagen I coated, 96-well optical plastic microplates (ThermoScientific, 152036) and incubated overnight at 37° C., 5% CO2 in a humidified incubator in DMEM with 2% Fetal Bovine Serum and 1% Antibiotic-Antimycotic. After the overnight incubation, plates are washed and pretreated with medium±single amino acid dropout, 1×HMDB DMEM±supplemental amino acid dose for 10.5 hours. After 10.5 hour pretreatment, the same pretreatment medium supplemented with 3 ng/mL TGFβ1, was applied and incubated for 24 hours at 37° C., 5% CO2. After 24 hour stimulus, supernatant was removed, RNA was extracted and gene expression was evaluated using the ΔΔCq method within each single amino acid dropout and supplementation by normalizing to its own 1×HMDB concentration.

[3] = tested on: Hsp47 gene expression, primary human hepatic stellate cells; test: Hsp47 gene expression in TGFβ1-stimulated primary human hepatic stellate cells; assay type: cell-based; conditions: for Hsp47 Fold Expression Relative to Control, Mean: first donor, normalized to Gapdh, single amino acid; for Hsp47 gene expression: primary human hepatic stellate cells, three healthy donors, TGFβ1 3 ng/mL 24 h, summary in words
Experimental: Primary human hepatic stellate cells were obtained from Samsara Sciences based on the following criteria for selecting donors: adult age (between 18 and 50 years), normal BMI (>18.5 and <25), and absence of confounding liver disease. Cells grown in Complete HSC Medium to ˜80% confluence in T75 or T150 flasks below passage 10 were seeded into sterile, collagen I coated, 96-well optical plastic microplates (ThermoScientific, 152036) at 6000 cells per well (1250 cells per cm2) and incubated overnight at 37° C., 5% CO2 in a humidified incubator in DMEM with 2% Fetal Bovine Serum and 1% Antibiotic-Antimycotic.
After the overnight incubation, plates were removed from the incubator and the medium was gently pipetted off and washed twice with 150 μL per well DPBS. The DPBS was removed and the pretreatment medium (±single amino acid dropout, 1×HMDB DMEM+1% Antibiotic-Antimycotic, 10 mM HEPES, ±supplemental amino acid dose; see experiment for medium composition) was applied to the cells at 150 μL per well. Plates were returned to the incubator for 10.5 hours.
After 10.5 hour pretreatment, the medium was removed from the cells, and the same pretreatment medium, now supplemented with 3 ng/mL TGFβ1, was applied. Each plate contained 3 ng/mL TGFβ1 in 1× human plasma amino acid (HMDB or PAA) concentration medium, 0 ng/mL in 1×HMDB, and 3 ng/mL TGFβ1+20 μM Silybin in 1×HMDB to serve as controls. Plates were then incubated for 24 hours at 37° C., 5% CO2.
After 24 hour stimulus, supernatant was removed and frozen at −80° C. in two separate aliquots. The cells were then washed with 125 μL per well Buffer FCW (FastLane Cell Multiplex NR Kit, Qiagen, 216713). The wash buffer was immediately removed and 50 μL of Cell Processing Mix (containing genomic DNA Wipeout buffer) was applied to lyse cells, incubating for 10 minutes at room temperature. RNA lysate was then transferred to 96-well qPCR plates, sealed, and gDNA was digested on thermal cycler at 75° C. for 5 minutes. RNA lysate was frozen at −80° C.
Each 20 μL one-step RT-qPCR reaction contained 4 μL of RNA lysate. Gene expression of Hsp47, and Gapdh were multiplexed using the HEX, and FAM fluorescent channels, respectively, with commercially available primer-probe mixes (the Human Hsp47 Primer-Probe Set, HEX; and the Human Gapdh Primer-Probe Set, FAM from IDT). Gene expression was evaluated using the ΔΔCq method within each single amino acid dropout and supplementation by normalizing to its own 1×HMDB concentration.

[4] = individual amino acid at 1X HMDB derived concentration
[5] = individual amino acid at 50X HMDB derived concentration

CC[C@H](C)[C@H](N)C(=O)O [ILE, isoleucine]
Col1a1 gene expression, mean [1, 4]: 2.020
Col1a1 gene expression, mean [1, 5]: 2.028
Col1a1 Fold Expression Relative to Control, Mean ([2]; Table 31-4, second donor, 66 μM (baseline, reference)): 1.02 fold
Col1a1 Fold Expression Relative to Control, Mean ([2]; Table 31-4, second donor, 1328 μM): 0.94 fold
Col1a1 Fold Expression Relative to Control, Mean ([2]; Table 31-4, second donor, 3320 μM): 0.94 fold
Col1a1 Fold Expression Relative to Control, Mean ([2]; Table 31-4, second donor, 6639 μM): 1.03 fold
Col1a1 Fold Expression Relative to Control, Mean ([2]; first donor, 66 μM (baseline, reference)): 1.01 fold
Col1a1 Fold Expression Relative to Control, Mean ([2]; first donor, 1328 μM): 1.05 fold
Col1a1 Fold Expression Relative to Control, Mean ([2]; first donor, 3320 μM): 1.10 fold
Col1a1 Fold Expression Relative to Control, Mean ([2]; first donor, 6639 μM): 1.11 fold
Col1a1 gene expression [2]: did not significantly change
Col1a1 Fold Expression Relative to Control, Mean ([2]; second donor, 66 μM (baseline, reference)): 1.00 fold
Col1a1 Fold Expression Relative to Control, Mean ([2]; second donor, 1328 μM): 0.97 fold
Col1a1 Fold Expression Relative to Control, Mean ([2]; second donor, 3320 μM): 0.99 fold
Col1a1 Fold Expression Relative to Control, Mean ([2]; second donor, 6639 μM): 1.03 fold
Hsp47 Fold Expression Relative to Control, normalized to Gapdh (Mean) ([3]; Table 38, second donor, 66 μM (baseline 1×HMDB concentration)): 1.00 fold
Hsp47 Fold Expression Relative to Control, normalized to Gapdh (Mean) ([3]; Table 38, second donor, 1328 μM): 0.90 fold
Hsp47 Fold Expression Relative to Control, normalized to Gapdh (Mean) ([3]; Table 38, second donor, 3320 μM): 0.92 fold
Hsp47 Fold Expression Relative to Control, normalized to Gapdh (Mean) ([3]; Table 38, second donor, 6639 μM): 0.94 fold
Hsp47 Fold Expression Relative to Control, normalized to Gapdh (Mean) ([3]; Table 40, second donor (so in the source), 66 μM (baseline 1×HMDB concentration)): 1.00 fold
Hsp47 Fold Expression Relative to Control, normalized to Gapdh (Mean) ([3]; Table 40, second donor (so in the source), 1328 μM): 1.00 fold
Hsp47 Fold Expression Relative to Control, normalized to Gapdh (Mean) ([3]; Table 40, second donor (so in the source), 3320 μM): 0.98 fold
Hsp47 Fold Expression Relative to Control, normalized to Gapdh (Mean) ([3]; Table 40, second donor (so in the source), 6639 μM): 1.06 fold
Hsp47 Fold Expression Relative to Control, Mean ([3]; 66 μM (1X reference)): 1.00 fold
Hsp47 Fold Expression Relative to Control, Mean ([3]; 1328 μM): 1.07 fold
Hsp47 Fold Expression Relative to Control, Mean ([3]; 3320 μM): 1.22 fold
Hsp47 Fold Expression Relative to Control, Mean ([3]; 6639 μM): 0.99 fold
Hsp47 gene expression [3]: did not significantly change

CC(C)[C@H](N)C(=O)O [VAL, valine]
Col1a1 gene expression, mean [1, 4]: 2.093
Col1a1 gene expression, mean [1, 5]: 2.203
Col1a1 Fold Expression Relative to Control, Mean ([2]; Table 31-4, second donor, 234 μM (baseline, reference)): 1.01 fold
Col1a1 Fold Expression Relative to Control, Mean ([2]; Table 31-4, second donor, 4684 μM): 1.22 fold
Col1a1 Fold Expression Relative to Control, Mean ([2]; Table 31-4, second donor, 11710 μM): 1.27 fold
Col1a1 Fold Expression Relative to Control, Mean ([2]; Table 31-4, second donor, 23420 μM): 1.13 fold
Col1a1 Fold Expression Relative to Control, Mean ([2]; first donor, 234 μM (baseline, reference)): 1.00 fold
Col1a1 Fold Expression Relative to Control, Mean ([2]; first donor, 4684 μM): 1.05 fold
Col1a1 Fold Expression Relative to Control, Mean ([2]; first donor, 11710 μM): 1.09 fold
Col1a1 Fold Expression Relative to Control, Mean ([2]; first donor, 23420 μM): 1.00 fold
Col1a1 gene expression [2]: did not significantly change
Col1a1 Fold Expression Relative to Control, Mean ([2]; second donor, 234 μM (baseline, reference)): 1.00 fold
Col1a1 Fold Expression Relative to Control, Mean ([2]; second donor, 4684 μM): 1.05 fold
Col1a1 Fold Expression Relative to Control, Mean ([2]; second donor, 11710 μM): 0.98 fold
Col1a1 Fold Expression Relative to Control, Mean ([2]; second donor, 23420 μM): 1.05 fold
Hsp47 Fold Expression Relative to Control, normalized to Gapdh (Mean) ([3]; Table 38, second donor, 234 μM (baseline 1×HMDB concentration)): 1.00 fold
Hsp47 Fold Expression Relative to Control, normalized to Gapdh (Mean) ([3]; Table 38, second donor, 4684 μM): 1.02 fold
Hsp47 Fold Expression Relative to Control, normalized to Gapdh (Mean) ([3]; Table 38, second donor, 11710 μM): 0.99 fold
Hsp47 Fold Expression Relative to Control, normalized to Gapdh (Mean) ([3]; Table 38, second donor, 23420 μM): 0.89 fold
Hsp47 Fold Expression Relative to Control, normalized to Gapdh (Mean) ([3]; Table 40, second donor (so in the source), 234 μM (baseline 1×HMDB concentration)): 1.00 fold
Hsp47 Fold Expression Relative to Control, normalized to Gapdh (Mean) ([3]; Table 40, second donor (so in the source), 4684 μM): 0.97 fold
Hsp47 Fold Expression Relative to Control, normalized to Gapdh (Mean) ([3]; Table 40, second donor (so in the source), 11710 μM): 0.95 fold
Hsp47 Fold Expression Relative to Control, normalized to Gapdh (Mean) ([3]; Table 40, second donor (so in the source), 23420 μM): 0.95 fold
Hsp47 Fold Expression Relative to Control, Mean ([3]; 234 μM (1X reference)): 1.00 fold
Hsp47 Fold Expression Relative to Control, Mean ([3]; 4684 μM): 1.05 fold
Hsp47 Fold Expression Relative to Control, Mean ([3]; 11710 μM): 1.05 fold
Hsp47 Fold Expression Relative to Control, Mean ([3]; 23420 μM): 1.00 fold
Hsp47 gene expression [3]: did not significantly change
